In ChEMBL document CHEMBL1129158, “Marine sponge bis(indole) alkaloids that displace ligand binding to 1 adrenergic receptors” (Bioorg Med Chem Lett, 1996):

What was measured:
[1] = target: T1, Alpha-1B adrenergic receptor (Homo sapiens, UniProt P35368); experiment: Binding affinity against human Alpha-1b adrenergic receptor
T1 sequence (P35368 whole entry): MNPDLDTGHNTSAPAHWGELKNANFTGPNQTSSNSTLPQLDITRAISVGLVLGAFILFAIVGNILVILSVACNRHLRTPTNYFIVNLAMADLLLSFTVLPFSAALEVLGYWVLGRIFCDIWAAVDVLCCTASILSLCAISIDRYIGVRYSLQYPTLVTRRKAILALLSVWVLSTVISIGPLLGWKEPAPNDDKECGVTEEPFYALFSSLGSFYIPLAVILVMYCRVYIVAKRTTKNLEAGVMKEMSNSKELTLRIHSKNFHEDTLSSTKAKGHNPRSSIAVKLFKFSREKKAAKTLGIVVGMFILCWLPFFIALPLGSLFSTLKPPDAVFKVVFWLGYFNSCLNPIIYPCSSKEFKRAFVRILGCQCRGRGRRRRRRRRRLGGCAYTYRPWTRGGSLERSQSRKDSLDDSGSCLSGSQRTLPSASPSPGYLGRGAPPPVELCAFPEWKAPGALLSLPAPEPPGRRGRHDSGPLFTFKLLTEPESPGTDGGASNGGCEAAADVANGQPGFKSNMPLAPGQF

[2] = target: T2, Alpha-1A adrenergic receptor (Rattus norvegicus, UniProt P43140); experiment: Binding affinity was determined against Alpha-1a adrenergic receptor
T2 sequence (P43140 whole entry): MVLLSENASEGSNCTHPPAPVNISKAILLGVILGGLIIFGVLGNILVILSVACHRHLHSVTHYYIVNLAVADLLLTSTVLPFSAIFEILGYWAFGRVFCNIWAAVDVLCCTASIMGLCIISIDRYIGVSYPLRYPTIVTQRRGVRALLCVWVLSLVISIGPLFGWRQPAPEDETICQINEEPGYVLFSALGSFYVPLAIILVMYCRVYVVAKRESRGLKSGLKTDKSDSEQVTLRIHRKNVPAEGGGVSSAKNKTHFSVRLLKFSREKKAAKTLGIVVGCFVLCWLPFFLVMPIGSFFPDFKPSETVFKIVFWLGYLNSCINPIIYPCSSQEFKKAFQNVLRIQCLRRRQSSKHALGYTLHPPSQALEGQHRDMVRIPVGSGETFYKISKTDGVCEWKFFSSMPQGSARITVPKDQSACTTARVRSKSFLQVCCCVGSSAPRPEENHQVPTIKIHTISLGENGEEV

[3] = target: Adrenergic receptors; alpha-1 A & B (Homo sapiens) (UniProt P35348+P35368); experiment: Selectivity is determined from the ratio of binding affinities of alpha 1a adrenoceptor to alpha 1b adrenoceptor; type: protein assay
[4] = target: T3, Alpha-1A adrenergic receptor (Homo sapiens, UniProt P35348); experiment: Compound was tested for its binding affinity towards CHO cells expressing human Alpha-1a adrenergic receptor by displacing [125I]HEAT (2-beta-(4-hydroxyphenyl)-ethylaminomethyltetralone); type: cell-based
T3 sequence (P35348 whole entry): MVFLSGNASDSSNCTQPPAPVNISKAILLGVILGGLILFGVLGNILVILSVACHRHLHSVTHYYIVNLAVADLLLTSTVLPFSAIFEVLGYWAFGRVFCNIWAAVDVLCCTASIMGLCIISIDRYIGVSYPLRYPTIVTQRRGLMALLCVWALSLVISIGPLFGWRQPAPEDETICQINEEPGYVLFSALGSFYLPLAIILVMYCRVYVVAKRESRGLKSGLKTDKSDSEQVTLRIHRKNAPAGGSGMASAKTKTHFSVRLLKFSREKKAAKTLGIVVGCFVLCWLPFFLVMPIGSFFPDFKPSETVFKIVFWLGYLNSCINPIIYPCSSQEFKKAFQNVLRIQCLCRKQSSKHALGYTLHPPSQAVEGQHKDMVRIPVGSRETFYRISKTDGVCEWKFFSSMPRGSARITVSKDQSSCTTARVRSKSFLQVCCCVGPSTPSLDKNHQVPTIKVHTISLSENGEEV

[5] = target: Alpha-1B adrenergic receptor (Mesocricetus auratus, UniProt P18841); experiment: Compound was tested for its binding affinity towards Rat-1 cells stably expressing hamster alpha-1b adrenergic receptor by displacing [125I]HEAT (2-beta-(4-hydroxyphenyl)-ethylaminomethyltetralone); type: cell-based
Chain of Alpha-1B adrenergic receptor (Mesocricetus auratus, UniProt P18841) (P18841 whole entry, looked up): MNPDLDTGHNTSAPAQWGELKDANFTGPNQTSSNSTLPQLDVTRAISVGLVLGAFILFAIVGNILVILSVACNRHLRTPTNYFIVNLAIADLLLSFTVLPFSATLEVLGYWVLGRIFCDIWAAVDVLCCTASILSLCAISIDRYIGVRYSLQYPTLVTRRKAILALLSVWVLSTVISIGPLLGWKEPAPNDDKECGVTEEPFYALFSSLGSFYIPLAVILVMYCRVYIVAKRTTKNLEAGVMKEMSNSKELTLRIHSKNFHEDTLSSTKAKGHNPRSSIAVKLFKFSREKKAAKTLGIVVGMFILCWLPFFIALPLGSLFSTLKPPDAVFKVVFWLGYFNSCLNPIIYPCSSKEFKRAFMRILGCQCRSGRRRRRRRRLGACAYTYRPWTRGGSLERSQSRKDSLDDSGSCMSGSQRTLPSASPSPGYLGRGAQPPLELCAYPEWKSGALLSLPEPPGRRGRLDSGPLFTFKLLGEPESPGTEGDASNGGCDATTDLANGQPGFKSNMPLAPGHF

| Structure (SMILES) | Ki [1] [nM] | Ki [2] [nM] | Selectivity [3] | Ki [4] [nM] | Ki [5] [nM] |
| --- | --- | --- | --- | --- | --- |
| CN1C[C@H](c2c[nH]c3c(Br)c(Br)cc(O)c23)NC[C@H]1c1c[nH]c2cc(Br)ccc12 | 78 | 138 | 1.8 | 140 | – |
| O=C(c1nc(-c2c[nH]c3cc(Br)ccc23)c[nH]1)c1c[nH]c2cc(O)ccc12 [BROMOTOPSENTIN] | – | – | 17 | 12600 | – |
| Brc1ccc2c(-c3c[nH]c(-c4c[nH]c5cc(Br)ccc45)n3)c[nH]c2c1 [NORTOPSENTIN A] | – | – | 4.1 | 2140 | – |
| Brc1ccc2c(-c3nc(-c4c[nH]c5ccccc45)c[nH]3)c[nH]c2c1 [NORTOPSENTIN B] | – | – | 5.9 | 770 | – |
| Brc1ccc2c(-c3c[nH]c(-c4c[nH]c5ccccc45)n3)c[nH]c2c1 [NORTOPSENTIN C] | – | – | 3.2 | 550 | – |
| O=C(c1nc(-c2c[nH]c3ccccc23)c[nH]1)c1c[nH]c2cc(O)ccc12 [TOPSENTIN] | – | – | 4.1 | – | 4740 |
